Results from US20080112967A1, “Process for Refining Ganoderma Spore Polysacchoride” (NANJING ZHONGKE GROUP CORP., LTD., priority 2006, published 2008).

Key:
[1] = tested on: mouse transplantation tumor S180; assay: inhibitory action of No. 2, intravenous injection administration, on mouse transplantation tumor S180; details: masculine reference, dosage 30 mg/kg, once on alternate days, 4 times
From the text: (§1) 1.1 The test medicine: the Ganoderma spore polysaccharide of the present invention (produced by the method of the present invention, it is named No.2.).
(§2) 1.2 Animal: ICR mouse, 18-22 g, half male and half female, the mouses is provided by China drug section university animal laboratory. The number of ertificate of conformity is: SCXK(SU)2002-0011. The feedstuff is diet pellet, it is provided by China drug section university animal laboratory. Breeding condition: air conditioning room, Temperature 18-24° C., Relative humidity: 70%.
(§3) 1.3 Masculine drug: endoxan (CTX), HENGRUI MEDICINE CO LTD JIANG.
3.2.1 administration route: intravenous injection (iv)
3.2.2 administration period: Inoculate S180 entity type by transplantation tumor methodology, after inoculating 24 h, administrate to the mouse and ip administrate, once on alternate days, administrate for 4 times, at the next day when the administration is stopped, kill the mouse.
(§4) 3.2.3 dosage, there are four groups:
(§5) blank reference group (normal saline)
(§6) 3.2.4 experimental method: Take 40 above-mentioned mouses (S180 entity type inoculated by transplantation tumor methodology), after the mouse is inoculated, weigh the mouse, and divide them into 4 groups, there is 10 mouses in every groups, half male and half female, blank reference group and CTX group are negative and masculine reference group. After inoculating 24 h, administrate to the mouse and ip administrate, once on alternate days, administrate for 4 times, at the next day when the administration is stopped, weigh the mouses and kill them, weigh the weight of tumor, statisticaly treat the obtained data t verify.

[2] = tested on: mouse transplantation tumor S180; assay: inhibitory action of No. 1, oral pour stomach administration, on mouse transplantation tumor S180; details: masculine reference, dosage 30 mg/kg, once a day, 7 times
Method: (§7) 1.1 The test medicine: the reference Ganoderma spore polysaccharide (it is named No. 1), it is produced by the method disclosed in the CN1483743, the specific steps is: add Ganoderma spore powder into distilled water, the added amount can shape the Ganoderma spore, shake it up, pelletize, dry in the air, use CO2 supercritical extraction method to remove fat, weigh 10 kg Ganoderma spore which is removed fat, add it into the abstraction pot, add 150 Kg water, soak it for 2 h, heat to boil, keep reflux for 4 h, centrifuge the extracting solution, condense the filtrate to 5 Kg, add three times 95% ethanol, lay it 24 h, filter the polysaccharide precipitation, dry the precipitation so as to obtain the Ganoderma spore polysaccharide.
(§8) 1.2 Animal:ICR mouse, 18-22 g, half male and half female, the mouses is provided by China drug section university animal laboratory. The number of certificate of conformity is: SCXK (SU)2002-0011. The feedstuff is diet pellet, it is provided by China drug section university animal laboratory. Breeding condition: air conditioning room, Temperature 18-24° C., Relative humidity: 70%.
(§9) 1.3 Masculine Drug: endoxan (CTX), HENGRUI MEDICINE CO LTD JIANG. Specification: 200 mg/bottle, Batch Number: 06060121.
3.2.1 administration route: oral pour stomach […]
3.2.2 administration period: Inoculate S180 entity type by transplantation tumor methodology, after inoculating 24 h, administrate to the mouse and ip administrate, once a day, administrate for 7 times, at the next day when the administration is stopped, kill the mouse.
as §4
(§10) blank reference group(normal saline)
as §6, with “once a day,” for “once on alternate days,”, “for 7” for “for 4”

[3] = tested on: mouse transplantation tumor Heps; assay: inhibitory action of No. 1, oral pour stomach administration, on mouse transplantation tumor Heps; details: masculine reference, dosage 30 mg/kg, once a day, 7 times
Method: as §7, §8, §9
3.1.1 administration route: oral pour stomach (ip)
3.1.2 administration period: Inoculate Heps entity type by transplantation tumor methodology, after inoculating 24 h, administrate to the mouse and ip administrate, once a day, administrate for 7 times, at the next day when the administration is stopped, kill the mouse.
(§11) 3.1.3 dosage, there are four groups:
as §10
as §6, with “3.1.4 experimental” for “3.2.4 experimental”, “mouses (Heps” for “mouses (S180”, “once a day,” for “once on alternate days,”, “for 7” for “for 4”, “data (t verify).” for “data t verify.”

[4] = tested on: mouse transplantation tumor Heps; assay: inhibitory action of No. 2, intravenous injection administration, on mouse transplantation tumor Heps; details: masculine reference, dosage 30 mg/kg, once on alternate days, 4 times
From the text: as §1, §2, §3
3.1 the inhibitory action of the No. 2 intravenous injection (iv) administration to the mouse transplantation tumor Heps.
3.1.1 administration route: intravenous injection (iv)
3.1.2 administration period: Inoculate Heps entity type by transplantation tumor methodology, after inoculating 24 h, administrate to the mouse and ip administrate, once on alternate days, administrate for 4 times, at the next day when the administration is stopped, kill the mouse.
as §11, §5
as §6, with “CTX: 20 mg/kg 3.1.4” for “3.2.4”, “(Heps” for “(S180”, “statistically” for “statisticaly”, “(t verify).” for “t verify.”

SMILES: O=P1(N(CCCl)CCCl)NCCCO1 (stereo not shown) [CTX, endoxan]
- The rate of inhibiting tumor (%) [1]: 65.81%
- Weight(g) After anministration ([1]; X ± SD, n = 10): 24.3 ± 1.68 g
- Weight(g) Before anministration ([1]; X ± SD, n = 10): 20.1 ± 0.94 g
- the weight of tumor ([1]; X ± SD, n = 10): 0.51 ± 0.18 g
- The rate of inhibiting tumor (%) [2]: 65.81%
- Weight(g) After anministration ([2]; X ± SD, n = 10): 24.3 ± 1.68 g
- Weight(g) Before anministration ([2]; X ± SD, n = 10): 20.1 ± 0.94 g
- the weight of tumor ([2]; X ± SD, n = 10): 0.51 ± 0.18 g
- The rate of inhibiting tumor (%) [3]: 64.60%
- Weight(g) After anministration ([3]; X ± SD, n = 10): 24.3 ± 2.41 g
- Weight(g) Before anministration ([3]; X ± SD, n = 10): 20.1 ± 1.30 g
- the weight of tumor ([3]; X ± SD, n = 10): 0.43 ± 0.15 g
- The rate of inhibiting tumor (%) [4]: 64.60%
- Weight(g) After anministration ([4]; X ± SD, n = 10): 24.3 ± 2.41 g
- Weight(g) Before anministration ([4]; X ± SD, n = 10): 20.1 ± 1.30 g
- the weight of tumor ([4]; X ± SD, n = 10): 0.43 ± 0.15 g
